Measured values taken from article PMC8607231, “Generation of KS-133 as a Novel Bicyclic Peptide with a Potent and Selective VIPR2 Antagonist Activity that Counteracts Cognitive Decline in a Mouse Model of Psychiatric Disorders” (Frontiers in Pharmacology, 2021).
Where a SMILES comes first, the peptide text is derived from it. Bridges are numbered along the chain shown (N, C = ends). [ ]: non-standard residue; d: D form. Dap = NC[C@H](N)C(=O)O

How the values were obtained:
human VIPR1 = biological target: T1, human VIPR1 (Homo sapiens, UniProt P32241); test: Calcium influx assay, antagonist activity against VIP-VIPR1 signaling; assay type: cell-based; settings: ligand VIP (25 nM) at EC80; CHO-K1 cells; n = 4 wells, ± S.E.M; read-out: Ca influx assay [IC50 (nM)] VIPR1
T1 construct: host or cells: CHO-K1
T1 sequence (P32241 31-457): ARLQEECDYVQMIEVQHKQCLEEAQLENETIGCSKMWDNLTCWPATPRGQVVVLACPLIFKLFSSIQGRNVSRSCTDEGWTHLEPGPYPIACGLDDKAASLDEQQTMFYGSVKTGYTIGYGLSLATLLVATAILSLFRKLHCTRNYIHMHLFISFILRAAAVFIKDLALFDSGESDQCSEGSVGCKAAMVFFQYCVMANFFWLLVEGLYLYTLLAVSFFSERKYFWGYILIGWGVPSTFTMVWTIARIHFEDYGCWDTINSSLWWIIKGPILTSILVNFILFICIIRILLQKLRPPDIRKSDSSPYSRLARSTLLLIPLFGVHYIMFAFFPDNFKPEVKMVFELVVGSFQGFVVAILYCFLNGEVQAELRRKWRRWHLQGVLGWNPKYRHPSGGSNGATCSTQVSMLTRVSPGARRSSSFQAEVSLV
Protocol: (§1) Evaluation of antagonist activities of peptides against VIP-VIPR1, VIP-VIPR2, and PACAP-PAC1 signaling pathways and agonistic activity of KS-133 at VIPR2 was carried out by Eurofins DiscoverX (Fremont, CA, United States). Intracellular calcium mobilization was monitored using a calcium-sensitive dye loaded in CHO-K1 cells expressing human VIPR1 (ITEM 86-0030P-2243AN), VIPR2 (ITEM 86-0030P-2244AN), and PAC1 (ITEM 86-0030P-2066AN). The cells were preincubated with antagonistic peptides for 30 min at room temperature in the dark. After addition of the ligand at EC80, calcium mobilization was immediately monitored by FLIPR Tetra for 2 min. Cyclic AMP production in CHO-K1 cells expressing human VIPR2 was evaluated using HitHunter® cAMP assays (antagonist mode: ITEM 86-0007P-2362AN; agonist mode: ITEM 86-0007P-2362AG). The cells were preincubated with antagonistic peptides for 30 min at room temperature. After addition of the ligand at EC80, cells were further incubated for 30 min at room temperature. Cells were lysed and the cAMP content of the cell lysate was determined by the β-galactosidase-based enzyme fragment complementation assay ([Eglen, 2002]). IC50 values were estimated by the following equation: IC50 = 10^[Log(A/B) × (50–D)/(C–D) + Log(B)], where A is the concentration at >50% inhibition, B is the concentration at <50% inhibition, C is the inhibition rate at concertation A, and D is the inhibition rate at concertation B.
(§2) First, the antagonistic activities of parental VIpep-3, KS-132, KS-133 (monocyclic) (no bridging between Lys^7 and Asp^11), and KS-133 against human VIPR1, VIPR2, and PAC1 were evaluated by a calcium influx assay. After antagonistic peptide treatment for 30 min, ligand at a concentration of EC80 was added to the cells and then calcium signaling was measured.
(§3) FIGURE 3 Antagonistic/agonistic activities of peptides in the calcium influx and cAMP assays. For evaluation of the antagonistic activity, the cells were preincubated with antagonistic peptides for 30 min. In the calcium influx assay, after addition of ligand at EC80, calcium mobilization was monitored immediately (see details in the Methods section) (n = 4 wells for each treatment). In the cAMP assay, after a 30 min incubation with the ligand at EC80, cAMP production in cells was measured (see details in the Methods section) (n = 4 wells for each treatment).

[1] = Peptide stability in rat plasma (RP-HPLC); assay type: in vitro ADME; settings: for Stability in rat plasma / RP-HPLC peak area, incubation time 24 h / remaining at 24 h, 0.476 mM: 37°C, 24 h; for RP-HPLC peak area, Input (NT): no plasma treatment; for RP-HPLC peak area, incubation time 24 h / remaining at 24 h, 0.476 mM / RP-HPLC peak area, immediately after mixing / Residual rate, immediately after mixing: rat plasma; for remaining at 24 h, 0.476 mM: read-out: Residual rate, incubation time 24 h
Protocol: Each peptide (10 mM, 1 μl) was incubated with rat plasma (20 μl) prepared in-house. Immediately after mixing with plasma and after 24 h of incubation at 37°C, 80% acetonitrile (200 μl) was added to extract VIpep-3 and acetonitrile (200 μl) was added to extract KS-132, KS-133(monocyclic), and KS-133. The mixture was stored for 10 min on ice and then centrifuged at 20,000 × g for 10 min at 4°C. The supernatant was recovered and directly applied to RP-HPLC to determine the remaining amount of unmodified peptides in the sample.
The stability of peptides was evaluated in rat plasma. A peptide was incubated in rat plasma at 37°C for 0 and 24 h and the remaining amount of peptide was determined by RP-HPLC. By comparison with the peak area of the peptide, the remaining amount of the peptide after plasma incubation was estimated. […] KS-133(monocyclic) may form a pseudo bicyclic structure by ionic bond interaction between side chains of Lys and Asp.

human VIPR2 = biological target: T2, human VIPR2 (Homo sapiens, UniProt P41587); test: Calcium influx assay, antagonist activity against VIP-VIPR2 signaling; assay type: cell-based; settings: ligand VIP (150 nM) at EC80; CHO-K1 cells; n = 4 wells, ± S.E.M; read-out: Ca influx assay [IC50 (nM)] VIPR2
T2 construct: host or cells: CHO-K1
T2 sequence (P41587 24-438): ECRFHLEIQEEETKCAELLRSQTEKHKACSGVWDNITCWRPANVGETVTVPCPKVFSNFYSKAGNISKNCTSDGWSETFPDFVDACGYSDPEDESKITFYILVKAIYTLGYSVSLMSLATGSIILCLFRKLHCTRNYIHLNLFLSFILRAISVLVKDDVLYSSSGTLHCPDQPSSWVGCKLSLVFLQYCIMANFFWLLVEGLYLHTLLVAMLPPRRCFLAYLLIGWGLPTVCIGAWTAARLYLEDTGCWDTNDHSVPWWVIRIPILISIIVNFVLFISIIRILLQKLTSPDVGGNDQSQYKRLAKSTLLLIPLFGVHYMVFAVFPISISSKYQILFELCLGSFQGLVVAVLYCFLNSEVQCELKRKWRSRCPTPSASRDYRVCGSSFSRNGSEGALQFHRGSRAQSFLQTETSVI
Protocol: as §1, with “The cells were preincubated with antagonistic peptides for 30 min at room temperature. After addition of the ligand at EC80, cells were further incubated for 30 min at room temperature.” left out, “IC50 values were estimated by the following equation: IC50 = 10^[Log(A/B) × (50–D)/(C–D) + Log(B)], where A is the concentration at >50% inhibition, B is the concentration at <50% inhibition, C is the inhibition rate at concertation A, and D is the inhibition rate at concertation B.” left out
as §2, with “measured. […]” for “measured.”

human PAC1 = biological target: T3, human PAC1 (Homo sapiens, UniProt P41586); test: Calcium influx assay, antagonist activity against PACAP-PAC1 signaling; assay type: cell-based; settings: ligand PACAP (35 nM) at EC80; CHO-K1 cells; n = 4 wells, ± S.E.M; read-out: Ca influx assay [IC50 (nM)] PAC1
T3 construct: host or cells: CHO-K1
T3 sequence (P41586 21-468): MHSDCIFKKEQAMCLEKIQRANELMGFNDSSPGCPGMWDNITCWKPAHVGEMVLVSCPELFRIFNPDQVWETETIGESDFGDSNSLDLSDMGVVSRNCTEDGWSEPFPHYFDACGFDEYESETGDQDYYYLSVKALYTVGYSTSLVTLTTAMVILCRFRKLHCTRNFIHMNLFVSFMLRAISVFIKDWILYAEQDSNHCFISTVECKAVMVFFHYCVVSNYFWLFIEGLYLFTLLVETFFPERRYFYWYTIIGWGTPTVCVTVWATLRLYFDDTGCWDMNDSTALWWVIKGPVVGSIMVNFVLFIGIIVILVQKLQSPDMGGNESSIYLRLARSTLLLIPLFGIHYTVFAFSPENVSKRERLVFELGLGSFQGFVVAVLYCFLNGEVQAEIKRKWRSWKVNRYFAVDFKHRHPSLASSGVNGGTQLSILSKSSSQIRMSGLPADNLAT
Protocol: as §1, §2, §3

VIPR2 = system: VIPR2; parameters: method as in Sakamoto et al. (2018); settings: versus VIPR1 and PAC1; ref Sakamoto et al. (2018); cited from earlier work

| SMILES | IC50 (human VIPR1) [nM] | Stability in rat plasma [1] | RP-HPLC peak area, Input (NT) [1] | RP-HPLC peak area, incubation time 24 h [1] | remaining at 24 h, 0.476 mM [1] [%] | RP-HPLC peak area, immediately after mixing [1] | Residual rate, immediately after mixing [1] [%] | IC50 (human VIPR2) [nM] | IC50 (human PAC1) [nM] | Receptor selectivity for VIPR2 compared with the two other receptor subtypes (VIPR2) |
| --- | --- | --- | --- | --- | --- | --- | --- | --- | --- | --- |
| CC[C@H](C)[C@H](NC(=O)[C@H](CC(C)C)NC(=O)[C@H](CN)NC(=O)[C@@H]1CSSC[C@H](NC(C)=O)C(=O)N2CCC[C@H]2C(=O)N2CCC[C@H]2C(=O)N[C@@H](Cc2ccc(O)cc2)C(=O)N[C@@H](CC(C)C)C(=O)N2CCC[C@H]2C(=O)N[C@@H](CN)C(=O)N[C@@H](Cc2ccc(O)cc2)C(=O)N[C@@H](CC(C)C)C(=O)N1)C(N)=O [KS-132, Ac-c(Cys-Pro-Pro-Tyr-Leu-Pro-Dap-Tyr-Leu-Cys)-Dap-Leu-Ile-NH2] (Ac-CPPYLP[Dap]YLC[Dap]LI-NH2; disulfide 1-10) | > 5000 | significantly degraded within 24 h | 1460241 | 696652 | 57.8 | 1206247 | 100 | 33.4 ± 2.8 | > 5000 |  |
| CC(=O)N[C@H]1CSSC[C@@H](C(=O)N[C@H](C(=O)N[C@@H](CC(C)C)C(=O)N[C@@H](CC(C)C)C(=O)N[C@@H](CC(C)C)C(=O)N[C@@H](CCCNC(=N)N)C(=O)N[C@@H](CO)C(=O)O)[C@@H](C)O)NC(=O)[C@H](CC(C)C)NC(=O)[C@H](CCCNC(=N)N)NC(=O)[C@H](CCCNC(=N)N)NC(=O)[C@@H]2CCCN2C(=O)[C@H](CC(C)C)NC(=O)[C@H](Cc2ccc(O)cc2)NC(=O)[C@@H]2CCCN2C(=O)[C@@H]2CCCN2C1=O [VIpep-3, Ac-c(CPPYLPRRLC)TLLLRS-OH, reference compound] (Ac-CPPYLPRRLCTLLLRS-OH; disulfide 1-10) | > 5000 | significantly degraded within 24 h | 1299273 | 95354 | 10.6 | 900813 | 100 |  | > 5000 | more than 50 fold |
| CC[C@H](C)[C@H](NC(=O)[C@H](CC(C)C)NC(=O)[C@H](CC(=O)O)NC(=O)[C@@H]1CSSC[C@H](NC(C)=O)C(=O)N2CCC[C@H]2C(=O)N2CCC[C@H]2C(=O)N[C@@H](Cc2ccc(O)cc2)C(=O)N[C@@H](CC(C)C)C(=O)N2CCC[C@H]2C(=O)N[C@@H](CCCCN)C(=O)N[C@@H](Cc2ccc(O)cc2)C(=O)N[C@@H](CC(C)C)C(=O)N1)C(N)=O [KS-133(monocyclic)] (Ac-CPPYLPKYLCDLI-NH2; disulfide 1-10) | > 5000 | also highly stable | 768775 | 724176 | 97.3 | 744262 | 100 | 56 ± 3.9 | > 5000 |  |
